Experiments:
Assay type in all cases: cell-based
CDK2 = biological target: T1, CDK2 (Homo sapiens, UniProt P24941); test: HiBit Assay Protocol for CDK2 (HIBIT protein quantification, degradation); conditions: HEK293-CDK2-Hibit cells, compound treatment for 6 hours; for DC50: ABS DC50
T1 construct: host or cells: HEK293-CDK2-Hibit
Outline: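 DC50 comes from a fitted curve of remaining CDK2-HiBiT luminescence, referenced to DMSO-treated cells and medium-only wells. HEK293-CDK2-HiBiT cells, plated the previous night, received compounds in a 10-point, 3-fold series for 6 h before lysis with LgBiT-containing Nano-Glo HiBiT reagent.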

CCNE1 [1] = biological target: T2, CCNE1 (Homo sapiens, UniProt P24864); test: HiBit Assay Protocol for CCNE1 (HIBIT protein quantification, degradation); conditions: HEK293-CCNE1-Hibit cells, compound treatment for 6 hours
T2 construct: host or cells: HEK293-CCNE1-Hibit
Outline: (§1)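 Degradation readout: lytic Nano-Glo HiBiT luminescence after 6 h exposure of HEK293-CCNE1-HiBiT cells to 10-point, 3-fold serial dilutions. Signal was scaled between medium-only and DMSO-treated wells, and DC50 came from curve fits.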

CCNE1 [2] = biological target: T3, CCNE1 (Homo sapiens, UniProt P24864+P24941); test: as above; conditions: HEK293-CCNE1-Hibit cells, compound treatment for 6 hours, ABS DC50
T3 construct: host or cells: HEK293-CCNE1-Hibit
Outline: as §1

CDK9 = biological target: T4, CDK9 (Homo sapiens, UniProt P50750); test: HiBit Assay Protocol for CDK9 (HIBIT protein quantification, degradation); conditions: HEK293-CDK9-Hibit cells, compound treatment for 6 hours; for Dmax: 6 h, read-out: CDK9 HIBIT Protein Quantification Maximum
T4 construct: host or cells: HEK293-CDK9-Hibit
Outline: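 Degradation read-out: luminescence after lytic HiBiT/LgBiT detection in HEK293-CDK9-HiBiT cells exposed 6 h to 10-point, 3-fold compound dilutions. Signal scaled between 0.1% DMSO-treated cells and medium alone; DC50 fitted from the curve.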

T2 sequence (P24864 whole entry): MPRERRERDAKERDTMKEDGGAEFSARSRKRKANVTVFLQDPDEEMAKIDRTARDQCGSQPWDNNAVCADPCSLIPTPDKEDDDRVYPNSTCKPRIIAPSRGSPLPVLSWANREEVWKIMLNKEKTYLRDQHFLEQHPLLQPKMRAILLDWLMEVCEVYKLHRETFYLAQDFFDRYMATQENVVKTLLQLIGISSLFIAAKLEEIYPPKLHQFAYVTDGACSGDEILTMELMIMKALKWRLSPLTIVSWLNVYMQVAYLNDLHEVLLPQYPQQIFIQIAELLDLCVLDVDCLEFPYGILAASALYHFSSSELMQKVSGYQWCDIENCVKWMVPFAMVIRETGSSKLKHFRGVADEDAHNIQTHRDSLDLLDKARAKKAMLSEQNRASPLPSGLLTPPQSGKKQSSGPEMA
T4 sequence (P50750 whole entry): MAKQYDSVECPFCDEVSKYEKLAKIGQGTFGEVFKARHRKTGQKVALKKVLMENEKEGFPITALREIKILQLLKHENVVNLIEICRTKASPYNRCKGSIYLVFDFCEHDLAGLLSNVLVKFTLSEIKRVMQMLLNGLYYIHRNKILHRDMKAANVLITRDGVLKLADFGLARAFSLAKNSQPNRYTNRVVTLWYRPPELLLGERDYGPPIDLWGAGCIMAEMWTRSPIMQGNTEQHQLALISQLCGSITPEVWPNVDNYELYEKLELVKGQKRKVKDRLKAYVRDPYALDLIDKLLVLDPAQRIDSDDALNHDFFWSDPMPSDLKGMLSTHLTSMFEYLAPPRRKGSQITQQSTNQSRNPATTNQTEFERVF
T3 sequence (P24864 whole entry, one chain of several): as the sequence (P24864 whole entry) above

Row | CDK2 HIBIT Protein Quantification Maximum (CDK2) [%] | DC50 (CDK2) [nM] | CCNE1 HIBIT Protein Quantification Maximum (CCNE1 [1]) [%] | DC50 (CCNE1 [2]) [nM] | Dmax (CDK9) [%] | DC50 (CDK9; ABS DC50) [nM] | SMILES
1 | 80 | 2.48 | 40 |  | 2 |  | C[C@H](c1cccc(S(=O)(=O)N2CC[C@H](Nc3ncc4c(n3)N([C@@H]3CCC[C@@H](O)C3)C(=O)C43CC3)[C@H](F)C2)c1)N1CCC(c2ccc3c(N4CCC(=O)NC4=O)nn(C)c3c2)CC1 [Compound 198]
2 | 85 | 10.4 | 33 |  | 15 |  | CC(C)[C@@H]1CN([C@H](C)c2cccc(S(=O)(=O)N3CC[C@H](Nc4ncc5c(n4)N([C@@H]4CCC[C@@H](O)C4)C(=O)C54CC4)[C@H](F)C3)c2)CCN1c1ccc2c(N3CCC(=O)NC3=O)nn(C)c2c1 [Compound 204]
3 | 88 | 13.1 | 38 |  | 14 |  | CC(C)[C@@H]1CN([C@@H](C)c2cccc(S(=O)(=O)N3CC[C@H](Nc4ncc5c(n4)N([C@@H]4CCC[C@@H](O)C4)C(=O)C54CC4)[C@H](F)C3)c2)CCN1c1ccc2c(N3CCC(=O)NC3=O)nn(C)c2c1 [Compound 205]
4 | 91 | 10.9 | 43 |  | 13 |  | C[C@@H](c1cccc(S(=O)(=O)N2CC[C@H](Nc3ncc4c(n3)N([C@@H]3CCC[C@@H](O)C3)C(=O)C43CC3)[C@H](F)C2)c1)N1CCN(c2ccc3c(N4CCC(=O)NC4=O)nn(C)c3c2)[C@@H](C)C1 [Compound 206]
5 | 90 | 3.5 | 38 |  | 23 |  | C[C@H](c1cccc(S(=O)(=O)N2CC[C@H](Nc3ncc4c(n3)N([C@@H]3CCC[C@@H](O)C3)C(=O)C43CC3)[C@H](F)C2)c1)N1CCN(c2ccc3c(N4CCC(=O)NC4=O)nn(C)c3c2)[C@@H](C)C1 [Compound 207]
6 | 91 | 4.62 | 45 |  | 14 |  | C[C@H](c1cccc(S(=O)(=O)N2CC[C@H](Nc3ncc4c(n3)N([C@@H]3CCC[C@@H](O)C3)C(=O)C43CC3)[C@H](F)C2)c1)N1CCN(c2ccc3c(N4CCC(=O)NC4=O)nn(C)c3c2)[C@H](C)C1 [Compound 208]
7 | 91 | 12.7 | 43 |  | 16 |  | C[C@@H]1CN([C@@H](C)c2cccc(S(=O)(=O)N3CC[C@H](Nc4ncc5c(n4)N([C@@H]4CCC[C@@H](O)C4)C(=O)C54CC4)[C@H](F)C3)c2)CCN1c1ccc2c(N3CCC(=O)NC3=O)nn(C)c2c1 [Compound 209]

Second part, the compound before the results:

Row | SMILES | CDK2 HIBIT Protein Quantification Maximum (CDK2) [%] | DC50 (CDK2) [nM] | CCNE1 HIBIT Protein Quantification Maximum (CCNE1 [1]) [%] | DC50 (CCNE1 [2]) [nM] | Dmax (CDK9) [%] | DC50 (CDK9; ABS DC50) [nM]
8 | C[C@@H](c1cccc(S(=O)(=O)N2CCC(Nc3ncc4c(n3)N([C@@H]3CCC[C@@H](O)C3)C(=O)C43CC3)CC2)c1)N1CCC(c2ccc3c(N4CCC(=O)NC4=O)nn(C)c3c2)CC1 (single isomer, unassigned) [Compound 152] | 88 | 4.22 | 53 | 23.6 | 52 | 2170
9 | C[C@H]1CCC[C@H]1N1C(=O)C2(CC2)c2cnc(NC3CCN(S(=O)(=O)N(C)CCCN4CCC(c5cccc6c5n(C)c(=O)n6C5CCC(=O)NC5=O)CC4)CC3)nc21 (stereo partly drawn) [Compound 13, N-(3-{4-[1-(2,6-Dioxopiperidin-3-yl)-3-methyl-2-oxo-1,3-benzodiazol-4-yl]piperidin-1-yl}propyl)-N-methyl-4-{7′-[(1R,2S)-2-methylcyclopentyl]-6′-oxospiro[cyclopropane-1,5′-pyrrolo[2,3-d]pyrimidin]-2′-ylamino}piperidine-1-sulfonamide] | 79 | 17.3 | 52.8 | 17.6 |  | 
10 | Cn1nc(N2CCC(=O)NC2=O)c2ccc(C3CCN(CC4CCCN(S(=O)(=O)N5CCC(Nc6ncc7c(n6)N([C@@H]6CCC[C@@H](O)C6)C(=O)C76CC6)CC5)C4)CC3)cc21 (stereo partly drawn) [Compound 186, 1-[6-(1-{[1-(4-{7′-[(1R,3R)-3-Hydroxycyclohexyl]-6′-oxospiro[cyclopropane-1,5′-pyrrolo[2,3-d]pyrimidin]-2′-ylamino}piperidin-1-ylsulfonyl)piperidin-3-yl]methyl}piperidin-4-yl)-1-methylindazol-3-yl]-1,3-diazinane-2,4-dione] | 62 | 2.82 | 43 |  | 27 | 
11 | CC(c1cccc(S(=O)(=O)N2CC[C@H](Nc3ncc4c(n3)N([C@@H]3CCC[C@@H](O)C3)C(=O)C43CC3)[C@H](F)C2)c1)N1CCN(c2ccc3c(N4CCC(=O)NC4=O)nn(C)c3c2)CC1 (stereo partly shown) [Compound 187] | 91 | 4.32 | 45 |  | 11 | 
12 | CC(c1cccc(S(=O)(=O)N2CC[C@H](Nc3ncc4c(n3)N([C@@H]3CCC[C@@H](O)C3)C(=O)C43CC3)[C@H](F)C2)c1)N1CCC(c2ccc3c(N4CCC(=O)NC4=O)nn(C)c3c2)CC1 (stereo partly shown) [Compound 188] | 85 | 1.92 | 45 |  | 24 | 
13 | C[C@@H]1CN(c2ccc3c(N4CCC(=O)NC4=O)nn(C)c3c2)CCN1[C@H](C)c1cccc(S(=O)(=O)N2CC[C@H](Nc3ncc4c(n3)N([C@@H]3CCC[C@@H](O)C3)C(=O)C43CC3)[C@H](F)C2)c1 [Compound 191, 1-(6-((R)-4-((R)-1-(3-(((3R,4S)-3-Fluoro-4-((7′-((1R,3R)-3-hydroxycyclohexyl)-6′-oxo-6′,7′-dihydrospiro[cyclopropane-1,5′-pyrrolo[2,3-d]pyrimidin]-2′-yl)amino)piperidin-1-yl)sulfonyl)phenyl)ethyl)-3-methylpiperazin-1-yl)-1-methyl-1H-indazol-3-yl)dihydropyrimidine-2,4(1H,3H)-dione] | 90 | 21.9 | 48 |  | 9 | 
14 | C[C@@H]1CN(c2ccc3c(N4CCC(=O)NC4=O)nn(C)c3c2)CCN1[C@@H](C)c1cccc(S(=O)(=O)N2CC[C@H](Nc3ncc4c(n3)N([C@@H]3CCC[C@@H](O)C3)C(=O)C43CC3)[C@H](F)C2)c1 [Compound 192, 1-(6-((R)-4-((S)-1-(3-(((3R,4S)-3-Fluoro-4-((7′-((1R,3R)-3-hydroxycyclohexyl)-6′-oxo-6′,7′-dihydrospiro[cyclopropane-1,5′-pyrrolo[2,3-d]pyrimidin]-2′-yl)amino)piperidin-1-yl)sulfonyl)phenyl)ethyl)-3-methylpiperazin-1-yl)-1-methyl-1H-indazol-3-yl)dihydropyrimidine-2,4(1H,3H)-dione] | 92 | 4.67 | 45 |  | 16 | 
15 | CC(c1cccc(S(=O)(=O)N2CC[C@H](Nc3ncc4c(n3)N([C@@H]3CCC[C@@H](O)C3)C(=O)C43CC3)[C@H](F)C2)c1)N1CCN(c2ccc3c(N4CCC(=O)NC4=O)nn(C)c3c2)C[C@H]1C (stereo partly drawn) [Compound 195, 1-(6-((3R)-4-(1-(3-(((3R,4S)-3-Fluoro-4-((7′-((1R,3R)-3-hydroxycyclohexyl)-6′-oxo-6′,7′-dihydrospiro[cyclopropane-1,5′-pyrrolo[2,3-d]pyrimidin]-2′-yl)amino)piperidin-1-yl)sulfonyl)phenyl)ethyl)-3-methylpiperazin-1-yl)-1-methyl-1H-indazol-3-yl)dihydropyrimidine-2,4(1H,3H)-dione] | 92 | 5.54 | 41 |  | 21 | 
16 | C[C@H](c1cccc(S(=O)(=O)N2CC[C@H](Nc3ncc4c(n3)N([C@@H]3CCC[C@@H](O)C3)C(=O)C43CC3)[C@H](F)C2)c1)N1CCN(c2ccc3c(N4CCC(=O)NC4=O)nn(C)c3c2)CC1 [Compound 196] | 93 | 12 | 36 |  | 14 | 
17 | C[C@@H](c1cccc(S(=O)(=O)N2CC[C@H](Nc3ncc4c(n3)N([C@@H]3CCC[C@@H](O)C3)C(=O)C43CC3)[C@H](F)C2)c1)N1CCN(c2ccc3c(N4CCC(=O)NC4=O)nn(C)c3c2)CC1 [Compound 197] | 91 | 10.5 | 33 |  | 8 | 

Source: patent US20260070917A1, “CYCLIN DEPENDENT KINASE DEGRADERS AND METHODS OF USE THEREOF” (Differentiated Therapeutics Inc, priority 2023, published 2026)
